Where a name gives a salt, the structure may show the parent alone.
Key:
LDL-r promoter = LDL-r promoter luciferase reporter assay in HepG2 cells; format: cell-based; details: Homo sapiens; HepG2 cells stably transfected with LDL-r promoter-luciferase construct, 24 hours incubation, 2% lipoprotein-deficient serum; read-out: EC50 induction of luciferase activity
Experimental: HepG2 cells, stably transfected with a construct comprising the LDL-r promoter and the luciferase reporter gene, were seeded at 50.000 cells/well in 96 well plates. After 1 day, cells were incubated with compounds for 24 hours in RPMI medium containing 2% of lipoprotein-deficient serum. Compounds were tested from […]. Cell lysates were prepared and the luciferase activity was measured by the luciferase assay system (Promega). Induction of luciferase activity was calculated taking untreated cells as control. The ED50 of each compounds was determined compared to the ED50 of an internal standard.

Compound `O=C(NCCCCN1CCC(c2ccc3c(c2OCCO)CCCC3)CC1)c1sc(-c2ccc(C(F)(F)F)cc2)nc1CO` [Example 3, 4-Hydroxymethyl-2-(4-trifluoromethyl-phenyl)-thiazole-5-carboxylic acid (4-{4-[1-(2-hydroxy-ethoxy)-5,6,7,8-tetrahydro-naphthalen-2-yl]-piperidin-1-yl}-butyl)-amide] has a melting point of 157 to 159 °C.
For `Cc1nc(-c2ccc(Cl)cc2Cl)sc1C(=O)NCCCCN1CCC(c2ccc3c(c2OCCO)CCCC3)CC1` [Example 8, 2-(2,4-dichloro-phenyl)-4-methyl-thiazole-5-carboxylic acid (4-{4-[1-(2-hydroxy-ethoxy)-5,6,7,8-tetrahydro-naphthalen-2-yl]-piperidin-1-yl}-butyl)-amide], the EC50 (LDL-r promoter) was 13 nM.
`Cc1nc(-c2ccc(C#N)cc2)sc1C(=O)NCCCCN1CCC(c2ccc3c(c2OCCO)CCCC3)CC1` (as salt: hydrochloride) [Example 7, 2-(4-Cyano-phenyl)-4-methyl-thiazole-5-carboxylic acid (4-{4-[1-(2-hydroxy-ethoxy)-5,6,7,8-tetrahydro-naphthalen-2-yl]-piperidin-1-yl}-butyl)-amide, hydrochloride] showed a melting point of 188 °C.
`CS(=O)(=O)Nc1ccc(-c2ccc(C(=O)NCCCCN3CCC(c4ccc5c(c4OCCO)CCCC5)CC3)cc2)cc1` [Example 12, 4′-Methanesulfonylamino-biphenyl-4-carboxylic acid (4-{4-[1-(2-hydroxy-ethoxy)-5,6,7,8-tetrahydro-naphthalen-2-yl]-piperidin-1-yl}-butyl)-amide] gave an EC50 (LDL-r promoter) of 5 nM and a melting point of 216 °C.
